The values below come from patent publication US9593149B2, “Amylin and calcitonin receptor agonist” (Novo Nordisk A/S, priority 2014, dated 2017).

As usually defined, the solubility is how much of the substance goes into solution per volume. High values mean much dissolved substance, low ones little dissolved substance.

Converted amounts (≈) assume the structure as drawn. Peptide text beside a SMILES is read from it. * marks the point of attachment. C18 diacid = O=C(O)CCCCCCCCCCCCCCCCC(=O)*

This data set is described as follows: Assay (IV) determination of solubility. Type of data set: physicochemical. The protocol: Assay (IV)—Determination of Solubility
The mimylin peptide was dissolved in water at ˜500 nmol/ml and mixed 1:1 with a series of buffers (100 mM glycylglycine pH 3.0, 100 mM glycylglycine pH 4.0, 100 mM glycylglycine pH 5.0, 100 mM bistrispropane pH 6.0, 100 mM bistrispropane pH 6.5, 100 mM bistrispropane pH 7.0, 100 mM bistrispropane pH 7.5, 100 mM bistrispropane pH 8.0).

As to `CC(C)C[C@H](NC(=O)[C@H](CCC(=O)O)NC(=O)[C@H](Cc1cnc[nH]1)NC(=O)[C@H](CC(C)C)NC(=O)[C@H](CCC(=O)O)NC(=O)[C@H](C)NC(=O)[C@H](CO)NC(=O)[C@H](CC(C)C)NC(=O)[C@H](CCCNC(=N)N)NC(=O)CNC(=O)[C@H](CC(C)C)NC(=O)[C@@H](NC(=O)[C@H](C)NC(=O)[C@@H](NC(=O)[C@H](CO)NC(=O)[C@@H](NC(=O)[C@H](CCC(=O)O)NC(=O)[C@H](CO)NC(=O)[C@H](C)NC(=O)[C@H](CCC(=O)O)NC(=O)CCCCCCCCCCCCCCCCC(=O)O)C(C)C)[C@@H](C)O)C(C)C)C(=O)N[C@@H](C)C(=O)N[C@H](C(=O)N[C@@H](CC(C)C)C(=O)N1CCC[C@H]1C(=O)N[C@@H](CCCNC(=N)N)C(=O)N[C@H](C(=O)N[C@@H](CCC(=O)O)C(=O)N[C@H](C(=O)NCC(=O)N1CCC[C@H]1C(=O)N[C@@H](CCC(=O)O)C(=O)N[C@@H](CO)C(=O)N1CCC[C@H]1C(N)=O)[C@@H](C)O)[C@@H](C)O)[C@@H](C)O` [compound 24, [N-terminal(C18 diacid), 5V, 9V]mimylin] ({C18 diacid}-EASEVSTAVLGRLSAELHELATLPRTETGPESP-NH2), the Solubility result is on record as “≧200 μM” (pH 3.0); “≧200 μM” (pH 6.0); “≧200 μM” (pH 6.5); “≧200 μM” (pH 7.0); “≧200 μM” (pH 7.5); “≧200 μM” (pH 8.0). For the same compound, the solubility at 18 h is on record as 150 µM (≈ 562 µg/mL) (pH 4.0) and 145 µM (≈ 543 µg/mL) (pH 5.0).

Consider `CC(C)C[C@H](NC(=O)[C@H](C)NC(=O)[C@@H](NC(=O)[C@H](CO)NC(=O)[C@H](CC(C)C)NC(=O)[C@H](CCC(=O)O)NC(=O)[C@H](CO)NC(=O)[C@H](C)NC(=O)[C@H](CCC(=O)O)NC(=O)CCCCCCCCCCCCCCCCC(=O)O)[C@@H](C)O)C(=O)N[C@@H](C)C(=O)NCC(=O)N[C@@H](CCCNC(=N)N)C(=O)N[C@@H](CC(C)C)C(=O)N[C@@H](CO)C(=O)N[C@@H](C)C(=O)N[C@@H](CCC(=O)O)C(=O)N[C@@H](CC(C)C)C(=O)N[C@@H](Cc1cnc[nH]1)C(=O)N[C@@H](CCC(=O)O)C(=O)N[C@@H](CC(C)C)C(=O)N[C@@H](C)C(=O)N[C@H](C(=O)N[C@@H](CC(C)C)C(=O)N1CCC[C@H]1C(=O)N[C@@H](CCCNC(=N)N)C(=O)N[C@H](C(=O)N[C@@H](CCC(=O)O)C(=O)N[C@H](C(=O)NCC(=O)N1CCC[C@H]1C(=O)N[C@@H](CCC(=O)O)C(=O)N[C@@H](CO)C(=O)N1CCC[C@H]1C(N)=O)[C@@H](C)O)[C@@H](C)O)[C@@H](C)O` [compound 27, [N-terminal(C18 diacid), 9L, 10A]mimylin] ({C18 diacid}-EASELSTALAGRLSAELHELATLPRTETGPESP-NH2), for which the Solubility result reads like this: (pH 3.0) “≧200 μM”; (pH 4.0) “≧200 μM”; (pH 5.0) “≧200 μM”; (pH 6.0) “≧200 μM”; (pH 6.5) “≧200 μM”; (pH 7.0) “≧200 μM”. Moreover, the Solubility result runs as follows: (pH 7.5) “≧200 μM”; (pH 8.0) “≧200 μM”.

On to `CC(C)C[C@H](NC(=O)[C@H](CCC(=O)O)NC(=O)[C@H](Cc1cnc[nH]1)NC(=O)[C@H](CC(C)C)NC(=O)[C@H](CCC(=O)O)NC(=O)[C@H](C)NC(=O)[C@H](CO)NC(=O)[C@H](CC(C)C)NC(=O)[C@H](CCCNC(=N)N)NC(=O)CNC(=O)[C@H](CC(C)C)NC(=O)[C@@H](NC(=O)[C@H](C)NC(=O)[C@@H](NC(=O)[C@H](CO)NC(=O)[C@H](CC(C)C)NC(=O)[C@H](CCC(=O)O)NC(=O)[C@H](CO)NC(=O)[C@@H]1CCCN1C(=O)[C@H](CCC(=O)O)NC(=O)CCCCCCCCCCCCCCCCC(=O)O)[C@@H](C)O)C(C)C)C(=O)N[C@@H](C)C(=O)N[C@H](C(=O)N[C@@H](CC(C)C)C(=O)N1CCC[C@H]1C(=O)N[C@@H](CCCNC(=N)N)C(=O)N[C@H](C(=O)N[C@@H](CCC(=O)O)C(=O)N[C@H](C(=O)NCC(=O)N1CCC[C@H]1C(=O)N[C@@H](CCC(=O)O)C(=O)N[C@@H](CO)C(=O)N1CCC[C@H]1C(N)=O)[C@@H](C)O)[C@@H](C)O)[C@@H](C)O` [compound 28, [N-terminal(C18 diacid), 2P, 9V]mimylin] ({C18 diacid}-EPSELSTAVLGRLSAELHELATLPRTETGPESP-NH2), for which the Solubility result by setting is: (pH 3.0) “≧200 μM”; (pH 4.0) “≧200 μM”; (pH 5.0) “≧200 μM”; (pH 6.0) “≧200 μM”; (pH 6.5) “≧200 μM”; (pH 7.0) “≧200 μM”. For the same compound, the Solubility entry by setting is: (pH 7.5) “≧200 μM”; (pH 8.0) “≧200 μM”.

For the compound `CC(C)C[C@H](NC(=O)[C@H](CCC(=O)O)NC(=O)[C@H](Cc1cnc[nH]1)NC(=O)[C@H](CC(C)C)NC(=O)[C@H](CCC(=O)O)NC(=O)[C@H](C)NC(=O)[C@H](CO)NC(=O)[C@H](CC(C)C)NC(=O)[C@H](CCCNC(=N)N)NC(=O)CNC(=O)[C@H](CC(C)C)NC(=O)[C@@H](NC(=O)[C@H](C)NC(=O)[C@@H](NC(=O)[C@H](CO)NC(=O)[C@H](CC(C)C)NC(=O)[C@H](CCC(=O)O)NC(=O)[C@@H]1CCCN1C(=O)[C@H](C)NC(=O)[C@H](CCC(=O)O)NC(=O)CCCCCCCCCCCCCCCCC(=O)O)[C@@H](C)O)C(C)C)C(=O)N[C@@H](C)C(=O)N[C@H](C(=O)N[C@@H](CC(C)C)C(=O)N1CCC[C@H]1C(=O)N[C@@H](CCCNC(=N)N)C(=O)N[C@H](C(=O)N[C@@H](CCC(=O)O)C(=O)N[C@H](C(=O)NCC(=O)N1CCC[C@H]1C(=O)N[C@@H](CCC(=O)O)C(=O)N[C@@H](CO)C(=O)N1CCC[C@H]1C(N)=O)[C@@H](C)O)[C@@H](C)O)[C@@H](C)O` [compound 29, [N-terminal(C18 diacid), 3P, 9V]mimylin] ({C18 diacid}-EAPELSTAVLGRLSAELHELATLPRTETGPESP-NH2), the Solubility result was “≧200 μM” (pH 3.0); “≧200 μM” (pH 4.0); “≧200 μM” (pH 5.0); “≧200 μM” (pH 6.0); “≧200 μM” (pH 6.5); “≧200 μM” (pH 7.0). The Solubility result is listed as “≧200 μM” (pH 7.5) and “≧200 μM” (pH 8.0).

Turning to `CC(C)C[C@H](NC(=O)[C@H](CCC(=O)O)NC(=O)[C@H](Cc1cnc[nH]1)NC(=O)[C@H](CC(C)C)NC(=O)[C@H](CCC(=O)O)NC(=O)[C@H](C)NC(=O)[C@H](CO)NC(=O)[C@H](CC(C)C)NC(=O)[C@H](CCCNC(=N)N)NC(=O)CNC(=O)[C@H](CC(C)C)NC(=O)[C@@H](NC(=O)[C@H](C)NC(=O)[C@@H](NC(=O)[C@H](CO)NC(=O)[C@H](CC(C)C)NC(=O)[C@@H]1CCCN1C(=O)[C@H](CO)NC(=O)[C@H](C)NC(=O)[C@H](CCC(=O)O)NC(=O)CCCCCCCCCCCCCCCCC(=O)O)[C@@H](C)O)C(C)C)C(=O)N[C@@H](C)C(=O)N[C@H](C(=O)N[C@@H](CC(C)C)C(=O)N1CCC[C@H]1C(=O)N[C@@H](CCCNC(=N)N)C(=O)N[C@H](C(=O)N[C@@H](CCC(=O)O)C(=O)N[C@H](C(=O)NCC(=O)N1CCC[C@H]1C(=O)N[C@@H](CCC(=O)O)C(=O)N[C@@H](CO)C(=O)N1CCC[C@H]1C(N)=O)[C@@H](C)O)[C@@H](C)O)[C@@H](C)O` [compound 30, [N-terminal(C18 diacid), 4P, 9V]mimylin] ({C18 diacid}-EASPLSTAVLGRLSAELHELATLPRTETGPESP-NH2), the Solubility entry is, setting by setting: (pH 3.0) “≧200 μM”; (pH 4.0) “≧200 μM”; (pH 5.0) “≧200 μM”; (pH 6.0) “≧200 μM”; (pH 6.5) “≧200 μM”; (pH 7.0) “≧200 μM”. Also, the Solubility result is recorded as “≧200 μM” (pH 7.5) and “≧200 μM” (pH 8.0).

With `CC(C)C[C@H](NC(=O)[C@H](CCC(=O)O)NC(=O)[C@H](Cc1cnc[nH]1)NC(=O)[C@H](CC(C)C)NC(=O)[C@H](CCC(=O)O)NC(=O)[C@H](C)NC(=O)[C@H](CO)NC(=O)[C@H](CC(C)C)NC(=O)[C@H](CCCNC(=N)N)NC(=O)CNC(=O)[C@H](CC(C)C)NC(=O)[C@@H](NC(=O)[C@H](C)NC(=O)[C@@H](NC(=O)[C@H](CO)NC(=O)[C@H](CC(C)C)NC(=O)[C@H](CCC(=O)O)NC(=O)[C@H](CO)NC(=O)[C@H](C)NC(=O)[C@H](CCC(=O)O)NC(=O)CCCCCCCCCCCCCCCCC(=O)O)[C@@H](C)O)C(C)C)C(=O)N[C@@H](C)C(=O)N[C@H](C(=O)N[C@@H](CC(C)C)C(=O)N1CCC[C@H]1C(=O)N1CCC[C@H]1C(=O)N[C@H](C(=O)N[C@@H](CCC(=O)O)C(=O)N[C@H](C(=O)NCC(=O)N1CCC[C@H]1C(=O)N[C@@H](CCC(=O)O)C(=O)N[C@@H](CO)C(=O)N1CCC[C@H]1C(N)=O)[C@@H](C)O)[C@@H](C)O)[C@@H](C)O` [compound 31, [N-terminal(C18 diacid), 9V, 25P]mimylin] ({C18 diacid}-EASELSTAVLGRLSAELHELATLPPTETGPESP-NH2), the Solubility result is, setting by setting: (pH 3.0) “≧200 μM”; (pH 4.0) “≧200 μM”; (pH 5.0) “≧200 μM”; (pH 6.0) “≧200 μM”; (pH 6.5) “≧200 μM”; (pH 7.0) “≧200 μM”. Also, the Solubility entry runs as follows: (pH 7.5) “≧200 μM”; (pH 8.0) “≧200 μM”.
